Holding throughout (format): in vivo
The target of series [1] is T1, tau (Homo sapiens, UniProt P10636, P618L).
T1 construct: BiFC fluorescent-protein fragments (two complementary halves); from tissue; host or cells: brain of TauP301L-BiFC transgenic mice
Put plainly: Tau phosphorylation immunoblot of RIPA-soluble brain lysates. Conditions: TauP301L-BiFC mice, oral 10 mg/kg, 19 weeks, vehicle = 100%. On the procedure: (§1) [2] To verify the tau pathology inhibitory efficacy of the drug confirmed through brain tissue imaging via brain lysate immunoblot, brain lysates were separated and purified, and immunoblot using tau antibody was performed in soluble and insoluble fractions. The brain was weighed, and RIPA lysis buffer containing the corresponding dose of protease and phosphatase inhibitors was added to the brain tissue. The tissue was then disrupted using a homogenizer and incubated at 4°C for 2 hours, and then centrifuged at 13,200 rpm at 4°C for 20 minutes. After centrifugation, the supernatant was collected as a RIPA-soluble fraction and stored at -80°C. To prepare the RIPA-insoluble fraction, the remaining pellet was washed once with RIPA lysis buffer containing 1 M sucrose, and then 2% SDS solution (1 mL per 1 g of tissue) was added and incubated at room temperature for 1 hour. Thereafter, the mixture was centrifuged at 13,200 rpm for 1 minute at room temperature, and the supernatant was collected as a RIPA-insoluble fraction and stored at -80°C.
(§2) For tau immunoblot analysis, 20 µg of brain tissue RIPA-soluble sample was separated on a 10% SDS-PAGE gel and transferred to a PVDF membrane, and RIPA-insoluble samples were diluted 10-fold in 2% SDS solution and 20 µL of each sample was loaded on an SDS-PAGE gel. The total tau and phosphorylated tau levels were detected by Tau5, which is an anti-tau antibody, and pS199 and pS396, which are anti-phosphorylated tau antibodies. ImageJ software (NIH) was used to quantify band intensity.
(In general: In western blotting, separated proteins are transferred to a membrane and probed.)

Series [2] has as its target T1, tau. Put plainly: Total tau immunoblot of RIPA-insoluble brain lysates. Conditions: TauP301L-BiFC mice, compared to vehicle, numbers not readable (formula image). On the procedure:
as §1, §2
The results of total tau immunoblot using RIPA-insoluble brain lysates were as follows: [formula]

The test system of series [3] is TauP301L-BiFC Tg mice. Put plainly: Y-maze test in tau transgenic mice. Conditions: oral 10 mg/kg, 5 times per week, 19 weeks, vehicle = 60.7%. On the procedure: (§3) Compounds 6, 16, and 20 were orally administered to 8.2-month-old tau transgenic animal model (TauP301L-BiFC tg mouse) 5 times per week at a concentration of 10 mg/kg for a total of 19 weeks (n=10/group). WT mice of similar age to the vehicle-treated group of TauP301L-BiFC mice were used as a control group. Three types of behavioral experiments (Novel Objective Recognition test, Y-maze test, Balance beam test) were performed to confirm the improvement effects on cognitive function and motor function by drug administration, and these experiments and their results were as follows. • (1) Novel Objective Recognition test: To evaluate the object recognition memory ability of mice, two identical objects (Old-Old) were explored for 10 minutes in a 40 cm × 40 cm box. The next day, one object was replaced with a new object (Old-New) and exploration was performed again for 10 minutes, and then the time showing exploratory behavior toward the existing object and the new object was measured. Mice with normal object recognition ability (Recognition index) spent more time exploring the newly changed object, whereas mice with low object recognition ability could not distinguish the new object. The object recognition ability (Recognition index) values were as follows: (RI, Vehicle= 0.48, n.s., #20= 0.59, p<0.05, #6= 0.66, p<0.0001, #16= 0.58, p<0.05). In TauP301L-BiFC mice, the object recognition function improvement effect by drugs #20, #6, and #16 compared to the vehicle group was confirmed. • (2) Y-maze test: A Y-maze test was performed to evaluate the spatial working memory ability of mice. Whether the mice entered the three arms of the Y-maze by spontaneous alternation behavior for a certain period of time was measured through video recording. An increase in the spontaneous alternation ratio was considered as improved working memory ability. […] The time taken to cross a rod with a height of 50 cm and length of 80 cm and the number of times the feet went outside the rod during crossing were measured. […]

Series [4] relates to TauP301L-BiFC Tg mice. Put plainly: Novel Objective Recognition test in tau transgenic mice. Conditions: oral 10 mg/kg, 5 times per week, 19 weeks, Vehicle = 0.48. On the procedure:
as §3

In series [5] the test system is TauP301L-BiFC Tg mice. As to the kind of experiment: Balance beam test in tau transgenic mice. Conditions: oral 10 mg/kg, 5 times per week, 19 weeks, vehicle = 1.5. On the procedure: as §3
Series [6] can be described thus: Pharmacokinetic study in rats (IV and PO, plasma). Conditions: Sprague-Dawley, rat, SD rats. On the procedure:
The pharmacokinetics of the compounds prepared according to Examples 1 to 46 were studied using experimental animal models. Specifically, 7- to 8-week-old SD rats (Koatech, Hana Sangsa Co., Ltd.) weighing approximately 250 to 300 g were purchased and maintained in a small animal simple breeding room set at a temperature of 22 ± 2°C, relative humidity of 50 ± 5%, lighting time of 12 hours (lights on at 8 AM and lights off at 8 PM), and illumination of 150 to 300 lux. Throughout the entire test period, feed was provided ad libitum, RO water was provided ad libitum, and fasting was performed for 16 hours before oral administration of the drug. After preparing the drugs under the conditions shown in Table 7 below, the drugs were administered by intravenous injection (IV) or oral administration (PO). Collected blood at 500 µL was collected in tubes containing heparin sodium and centrifuged at 8000 rpm at 2 to 8°C for 6 minutes to obtain plasma from the blood. 20 µL of the obtained plasma was taken, added to 180 µL of acetonitrile containing an internal standard, vortexed, and centrifuged at 15,000 rpm at 4°C for 5 minutes, and the obtained supernatant was analyzed by LC-MS/MS. The HPLC and MS conditions used for analysis are shown in Tables 8 and 9 below, respectively.
Specific PK parameters were calculated using Phoenix WinNonlin 6.4 version (Pharsight, USA) program and a non-compartmental analysis model, and the results are summarized in Table 11 below.

By AUC is commonly meant the area under the concentration-time curve, a measure of exposure. High values mean high exposure, low ones low exposure. As a reminder, the Cmax is the highest concentration seen after dosing. Broadly, the half-life is the time in which the quantity being followed falls by half. As usually defined, the Tmax is the time from dosing to the highest level.

SMILES strings stand for the structures.

T1 sequence (P10636 1-441 isoform P10636-8 P301L): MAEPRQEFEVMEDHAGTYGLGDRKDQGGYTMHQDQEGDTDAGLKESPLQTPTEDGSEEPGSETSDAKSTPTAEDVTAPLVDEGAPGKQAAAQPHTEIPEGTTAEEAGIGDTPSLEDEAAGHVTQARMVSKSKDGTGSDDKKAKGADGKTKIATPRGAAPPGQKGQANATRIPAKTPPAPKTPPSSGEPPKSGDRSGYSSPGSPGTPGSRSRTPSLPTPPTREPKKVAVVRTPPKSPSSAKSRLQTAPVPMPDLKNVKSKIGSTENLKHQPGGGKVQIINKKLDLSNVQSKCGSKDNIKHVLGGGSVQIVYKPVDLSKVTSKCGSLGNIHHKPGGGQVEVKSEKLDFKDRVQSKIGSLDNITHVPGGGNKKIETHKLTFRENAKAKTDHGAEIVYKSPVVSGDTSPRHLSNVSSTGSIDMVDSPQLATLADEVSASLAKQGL

Take `Cn1c(N2CCOCC2)nc2cc(NN=C(C#N)C#N)ccc21` [Compound 6, (1-methyl-2-morpholino-1H-benzo[d]imidazol-5-yl)carbonohydrazonoyl dicyanide]: in series [1], the “pS199 tau phosphorylation immunoblot” value turned out to be 48% and the “pS396 tau phosphorylation immunoblot” value was 60%. Besides, in series [2], the “total tau immunoblot, insoluble tau aggregate formation” value (“total tau immunoblot” for short) is “inhibition of insoluble tau aggregate formation”. For the same compound, the “spontaneous alternation ratio (Alteration ratio (%))” value in series [3] is on record as 71.1%. The “object recognition ability (Recognition index, RI)” value in series [4] turned out to be 0.66. Besides, in series [5], the “Average number of times feet went outside the rod (n)” value (shortened to “Average number”) worked out at 1.1. For the same compound, the bioavailability in series [6] (IV 2 mg/kg, PO 10 mg/kg) was 42%. In addition, in series [6] (IV, 2 mg/kg), the AUC came to 1.7 µg·h/mL, the peak level (Cmax) was 9.87 µg/mL, the clearance was found to be 1.17 L/h/kg and the half-life was 34.8 min. Further, in series [6] (PO, 10 mg/kg), the AUC came to 3.57 µg·h/mL, the highest concentration (Cmax) amounted to 4.88 µg/mL, the Tmax worked out at 15 min and the half-life is 53.4 min.
As to `CC1COCCN1c1nc2ccc(NN=C(C#N)C#N)cc2o1` (centres unmarked) [Compound 16, (2-(3-methylmorpholino)benzo[d]oxazol-6-yl)carbonohydrazonoyl dicyanide], in series [1], the “pS199 tau phosphorylation immunoblot” value came to 24% and the “pS396 tau phosphorylation immunoblot” value amounted to 40%. The “total tau immunoblot” value in series [2] is “inhibition of insoluble tau aggregate formation”. Also, in series [3], the “spontaneous alternation ratio (Alteration ratio (%))” value is on record as 76.4%. The “object recognition ability (Recognition index, RI)” value in series [4] was found to be 0.58. In series [5], the “Average number” value is 0.8. The bioavailability in series [6] (IV 2 mg/kg, PO 10 mg/kg) was determined as 114%. In series [6] (IV, 2 mg/kg), this compound showed an AUC of 4.09 µg·h/mL, a Cmax of 4.09 µg/mL, a clearance of 0.5 L/h/kg and a half-life of 30.6 min. Also, in series [6] (PO, 10 mg/kg), the AUC turned out to be 23.3 µg·h/mL, the Cmax turned out to be 11.1 µg/mL, the Tmax was 40.2 min and the half-life was 112 min.
As to `N#CC(C#N)=NNc1ccc2nc(N3C4CCC3COC4)oc2c1` [Compound 20, (2-(3-oxa-8-azabicyclo[3.2.1]octan-8-yl)benzo[d]oxazol-6-yl)carbonohydrazonoyl dicyanide], in series [1], the “pS199 tau phosphorylation immunoblot” value is recorded as 60% and the “pS396 tau phosphorylation immunoblot” value stood at 71%. The “total tau immunoblot” value in series [2] is given as “inhibition of insoluble tau aggregate formation”. The “spontaneous alternation ratio (Alteration ratio (%))” value in series [3] was 70.8%. Further, the “object recognition ability (Recognition index, RI)” value in series [4] came to 0.59. Moreover, the “Average number” value in series [5] amounted to 0.7. Besides, the bioavailability in series [6] (IV 1 mg/kg, PO 15 mg/kg) was 114%. In series [6] (IV, 1 mg/kg), this compound showed an area under the curve (AUC) of 0.13 µg·h/mL, a clearance of 7.89 L/h/kg and a half-life of 12 min. For the same compound, in series [6] (PO, 15 mg/kg), the AUC was found to be 2.21 µg·h/mL, the highest level (Cmax) was 2.05 µg/mL, the Tmax came out at 24 min and the half-life was 96 min.

(Values after patent EP4737445A1, “NOVEL SATURATED HETEROCYCLE-SUBSTITUTED HETEROARYL-CARBONOHYDRAZONOYL DICYANIDE COMPOUND AND USE THEREOF” (Korea Institute of Science and Technology, priority 2023, dated 2025).)
